From US20240376101A1, “SUBSTITUTED 1,4-DIHYDRO-1,6-NAPHTHYRIDINE AMIDE AND USE THEREOF” (Tuojie Biotech (Shanghai) Co., Ltd., priority 2021, published 2024)

Columns and labels:
[1] = biological target: T1, mineralocorticoid receptors (Homo sapiens, UniProt P08235); experiment: Assay for in-vitro antagonistic activity against mineralocorticoid receptors (Gal4-MR LBD luciferase reporter in HEK293T cells, 1 nM aldosterone); type: cell-based
T1 construct: expressed in transfected cells; host or cells: HEK293T
T1 sequence (P08235 726-964 limits assumed): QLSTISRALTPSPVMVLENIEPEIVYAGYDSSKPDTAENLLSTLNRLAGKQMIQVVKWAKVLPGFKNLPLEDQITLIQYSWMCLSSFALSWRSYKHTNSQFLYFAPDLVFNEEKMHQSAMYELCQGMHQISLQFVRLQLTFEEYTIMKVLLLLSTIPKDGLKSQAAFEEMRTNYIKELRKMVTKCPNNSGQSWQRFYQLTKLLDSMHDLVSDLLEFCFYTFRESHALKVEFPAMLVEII
Description: In in-vitro activity assays of compounds in the disclosure, the characteristic of luciferase binding to the substrate to cause a chemiluminescence reaction can be utilized to transfect human embryonic kidney cells (HEK293T) with a plasmid comprising the mineralocorticoid receptor ligand binding domain (LBD) and fused with the Gal4 DNA-binding domain (DBD) and a firefly luciferase reporter gene plasmid under the control of Gal4 UAS (upstream activation sequence). The influence of the presence of stimulation or different stimuli on mineralocorticoid receptor activity is judged by the level of firefly luciferase activity.
Test Example 1: Assay for In-Vitro Antagonistic Activity Against Mineralocorticoid Receptors
All the compounds to be tested were serially diluted 3-fold from 10 mM with DMSO (Sigma, D8418), and 10 concentrations were obtained for each of the compounds.
The reference compound eplerenone was serially diluted 3-fold with DMSO to form 10 concentrations.
A 1000× positive control (10 mM eplerenone) and a 1000× negative control (100% DMSO) were prepared.
• 2.1. All cells were cultured as recommended by ATCC. HEK293T cells were passaged and plated when in the exponential growth phase. • 2.2. The old culture medium in the cell culture flask was discarded, and the cells were washed with PBS. • 2.3. A proper amount of TrypLE solution was added to the culture flask to digest the cells to separate them, and the digestion was stopped with a serum-containing complete culture medium. • 2.4. The cell suspension was centrifuged to make the cells settle. The cells were washed with PBS 2 times to remove phenol red and were then suspended with culture medium to a proper concentration (only cells with a survival rate of greater than 90% were used in the subsequent experiments). • 2.5. 6×10^6 HEK293T cells were spread on a 100 mm Petri dish and incubated in a 37° C., 5% CO2 incubator for 16 h. • 2.6. The cells were transfected with plasmids and then incubated in a 37° C., 5% CO2 incubator for another 5-6 h. • 2.7. 25 nL of compound dilution was transferred to a 384-well assay plate using Echo655. • 2.8. HEK293T cells were plated at a concentration of 17,000 cells/well in a 384-well plate, and meanwhile 1 nM aldosterone was added to each well. • 2.9. The cells were incubated in a 37° C., 5% CO2 incubator for 18-20 h. • 2.10. 25 μL of britelite+luciferase assay reagent was added to each well of the 384-well assay plate, and luminescence values were recorded on an Envision 2105 plate reader. • 2.11. The IC50 values of the compounds were obtained using the software Graphad 8.0 and a non-linear fitting equation.

[2] = tested on: db/db mice (idiopathic type II diabetes model mice); experiment: Efficacy test with db/db mouse model of diabetic nephropathy; type: in vivo; settings: for mALB compared to the model control group / urine albumin-to-creatinine ratio (UACR) compared to the model control group / urine amount compared to the model control group: after 4 weeks of administration, in words; for UACR / Urine creatinine / Urine weight / mALB: Mean±SEM
Protocol: Test Example 3: Efficacy Test with db/db Mouse Model of Diabetic Nephropathy
Proper amounts of compound 2-2 and finerenone were taken and separately mixed with a 0.5% hydroxyethyl cellulose solution (Tylose MH300) to form suspensions.
30 db/db mice (idiopathic type II diabetes model mice) were selected and divided into a model control group, a positive control group, and an administration group, and 10 db/m mice were selected as a control group.
The mice were dosed by oral gavage (i.g) once daily over 4 consecutive weeks. The dosing regimen is shown in detail in Table 4.
Urine albumin was used as a main measure. The data obtained were analyzed statistically using EXCEL and IBM SPSS Statistics 22.0.
All metrology data are expressed as Mean±SEM s. The parameters before and after dosing were plotted for the different groups of animals using the software Graph Pad Prism 8. Data were analyzed using the statistical software SPSS 22.0. A Levene's test of homogeneity of variance was performed on the parameters. When the variance was homogenous (P≥0.05), the Dunnett's & LSD method from the one-way analysis of variance (ANOVA) was used to compare the differences between the groups. When the variance was not homogenous (P<0.05), the Mann-Whitney U test (the M-W method) from the Kruskal-Wallis H test (the K-W method) was used to compare the differences between the groups. For animal survival, the log-rank test from the product-limit method (the K-M method) was used to compare the differences between the groups.

[3] = Human liver microsome metabolism study; type: in vitro ADME; settings: human liver microsomes
Protocol: Test Example 2: Human Liver Microsome Metabolism Study
222.5 μL of human liver microsomes (protein concentration: 1 mg/mL) and 25 μL of NADPH ([…]) were added to an incubation plate and pre-heated for 10 min. 2.5 μL of control compound and test compound (100 μM) were added.
30-μL aliquots were taken from the reaction solution at 0.5, 5, 10, 15, 20, and 30 min. The reaction was stopped by adding 5 volumes of cold acetonitrile containing IS (100 nM alprazolam, 200 nM caffeine, and 100 nM tolbutamide). The reaction solution was centrifuged, and 100 μL of the supernatant was collected and mixed with 100 μL of ultrapure H2O before analysis by LC-MS/MS.
The slope value k was determined by linear regression of the natural logarithm of a curve of the parent drug remaining percentage versus incubation time.
The in-vitro half-life (in-vitro T1/2) was determined by the slope value:
Using the following equation (the average of repeated measurements), the in-vitro T½ (min) was converted to in-vitro intrinsic clearance (in-vitro CLint, in μL/min/mg protein): […]

[4] = 15 mg/kg i.g. once daily, 4 weeks

## COc1cc(C#N)ccc1C1C(C(N)=O)=C(C)Nc2c(C)cnc(OCCSC)c21 (centres unmarked) [Compound 1]
[1]
  IC50: 0.016 µM

## [2H]C([2H])([2H])Oc1cc(C#N)ccc1C1C(C(N)=O)=C(C)Nc2c(C)cnc(OCC)c21 (centres unmarked) [Compound 2]
[1]
  IC50: 0.007 µM
[2]
  mALB compared to the model control group: tended to be lower than those in the model control group
  urine albumin-to-creatinine ratio (UACR) compared to the model control group: statistically significantly smaller than that of the mice in the model control group (P<0.01)
  urine amount compared to the model control group: tended to be lower than those in the model control group

## [2H]C([2H])([2H])C([2H])([2H])Oc1ncc(C)c2c1C(c1ccc(C#N)cc1OC)C(C(N)=O)=C(C)N2 (centres unmarked) [Compound 3]
[1]
  IC50: 0.017 µM

## CCOc1ncc(Cl)c2c1C(c1ccc(C#N)cc1OC)C(C(N)=O)=C(C)N2 (centres unmarked) [Compound 4]
[1]
  IC50: 0.011 µM

## CCOc1nc(Cl)cc2c1C(c1ccc(C#N)cc1OC)C(C(N)=O)=C(C)N2 (centres unmarked) [Compound 5]
[1]
  IC50: 0.005 µM

## CCOc1ncc(C)c2c1C(c1cc(C)c(C#N)cc1OC)C(C(N)=O)=C(C)N2 (centres unmarked) [Compound 6]
[1]
  IC50: 0.01 µM

## CCOc1ncc(C)c2c1[C@H](c1ccc(C#N)cc1OC)C(C(N)=O)=C(C)N2 [Finerenone]
[1]
  IC50: 0.013 µM
[3]; 0.5 min
  Remaining amount %: 100.00%
[3]; 5 min
  Remaining amount %: 67.31%
[3]; 10 min
  Remaining amount %: 42.44%
[3]; 15 min
  Remaining amount %: 24.78%
[3]; 20 min
  Remaining amount %: 16.62%
[3]; 30 min
  Remaining amount %: 7.44%
[3]; in-vitro half-life
  half-life at 1 μM: 7.4 min
[3]; in-vitro intrinsic clearance
  microsomal CLint at 1 μM: 93.7 µL/min/mg
[2]; 0 weeks (before dosing)
  UACR: 5538.19 µg/mg
  Urine creatinine: 0.37 μmol/24 h
  Urine weight: 2.86 mL
  mALB: 226.68 μg/24 h
[2]; [4]
  UACR: 4294.14 µg/mg
  Urine creatinine: 2.11 μmol/24 h
  Urine weight: 11.96 mL
  mALB: 1,013.76 μg/24 h
[2]
  mALB compared to the model control group: tended to be lower than those in the model control group
  urine albumin-to-creatinine ratio (UACR) compared to the model control group: decreased somewhat but is not significantly different from that of the mice in the model group
  urine amount compared to the model control group: tended to be lower than those in the model control group
